The source of these data is PMC6266789 (Viruses, 2018).

Several values for one entry are separate records, joined by “and”; a condition that tells them apart may be missing. Equal entries are not always repeated. Where two headings read alike, the source gives them in different places.

Assay [1] concerns rec A(H1N1)pdm09. Details: species or system C57BL/6 mice. The following applies: mouse, in vivo.
Assay [2] concerns NA of pH1N1 influenza virus recovered from lungs of IS mice. The assay is classed as biochemical, influenza A(H1N1)pdm09. The following applies: read-out: NAI Assay (Oseltamivir) Mean IC50.
The subject of assay [3] is rec A(H1N1)pdm09. Details: species or system C57BL/6 mice. Conditions: mouse, in vivo. This is another data set of the same source.
A further assay deals with influenza. Details: method as in earlier work. The following applies: infected IC young adults; cited from earlier work.
The test system of assay [4] is rec A(H1N1)pdm09. Conditions: mouse, in vivo.
The subject of assay [5] is pH1N1 influenza virus recovered from lungs of IS mice. Kind of assay: microbe, parasite or virus in culture. The assay is classed as cell-based.
Assay [6] relates to rec A(H1N1)pdm09. Details: species or system C57BL/6 mice. The following applies: mouse, in vivo. This is another data set of the same source.

In the case of `CCOC(=O)C1=C[C@@H](OC(CC)CC)[C@H](NC(C)=O)[C@@H](N)C1` [Oseltamivir, oseltamivir], the “levels of IL-6, TNF-α and IFN-γ after treatment” value with rec A(H1N1)pdm09 [1] is listed as “not reduced”. In addition, the IC50 in assay [2] is 0.0006 µM and 0.0008 µM. In the assay on rec A(H1N1)pdm09 [3], the “MDD (mean days of death)” value came out at 14.7, the “body weight losses over a 21-day period” value was “reduced” and the survival rate was determined as 50%. Also, the “MDD (mean days of death)” value in the assay on rec A(H1N1)pdm09 [3] (20 mg/kg) was 13 and 16.6. Further, the “nasal wash levels of IL-6, TNF-α and IFN-γ” value in the assay on influenza was “reduced”.

Take `O=P1(N(CCCl)CCCl)NCCCO1` (stereo not drawn) [CP, cyclophosphamide]: in the assay with rec A(H1N1)pdm09 [4], the “development of antibodies (microneutralization)” value was “none of them developed antibodies”.

For the compound `NC(=O)c1nc(F)cnc1O` [Favipiravir, 6-fluoro-3-hydroxy-2-pyrazinecarboxamide], the IC50 is 14 µM in assay [5] (read-out: PRA Assay (Favipiravir) IC50; virus from IS mice treated with oseltamivir 20 mg/kg + favipiravir 20 mg/kg BID, day 15; individual mice; Table 1); 13.8 µM in assay [5] (unidentified influenza virus, in Mus musculus, 288 h, virus from not treated IS mice, day 12; individual mice; Table 1 (exp 2); read-out: PRA Assay (Favipiravir) IC50); 11.5 µM in assay [5] (unidentified influenza virus, in Mus musculus, 360 h, virus from not treated IS mice, day 15; individual mice; Table 2 (exp 3); read-out: PRA Assay (Favipiravir) IC50); 10.6 µM and 13 µM in assay [5] (virus from IS mice treated with favipiravir 20 mg/kg BID, day 15; individual mice; Table 1; read-out: PRA Assay (Favipiravir) IC50); 12.4 µM in assay [5] (virus from IS mice treated with favipiravir 50 mg/kg BID, day 15; individual mice; Table 2; read-out: PRA Assay (Favipiravir) IC50); 13 µM in assay [5] (virus from IS mice treated with oseltamivir 20 mg/kg + favipiravir 20 mg/kg BID, day 15; individual mice; Table 1; read-out: PRA Assay (Favipiravir) IC50). Besides, the IC50 in assay [5] (virus from IS mice treated with oseltamivir 20 mg/kg + favipiravir 50 mg/kg BID, day 15; individual mice; Table 2; read-out: PRA Assay (Favipiravir) IC50) was 11.6 µM and 10.4 µM and 9.5 µM; in assay [5] (virus from not treated IS mice, day 12; individual mice; Table 1 (exp 2); read-out: PRA Assay (Favipiravir) IC50) it was 10.5 µM and 9.5 µM and 9.9 µM; in assay [5] (virus from not treated IS mice, day 15; individual mice; Table 2 (exp 3); read-out: PRA Assay (Favipiravir) IC50) it was 8.5 µM. Further, the “favipiravir susceptibility phenotype by PRA” value in assay [5] (viruses recovered on day 15 p.i., exp 3) was “did not show a resistant phenotype”. Besides, the “LVTs vs non-treated and oseltamivir-treated mice” value in the assay on rec A(H1N1)pdm09 [6] is reported as “statistically lower”. The “MDD (mean days of death)” value was 18 with rec A(H1N1)pdm09 [3]; 13 and 16.6 with rec A(H1N1)pdm09 [3] (20 mg/kg). Moreover, in the assay on rec A(H1N1)pdm09 [3], the “body weight losses over a 21-day period” value is “reduced”. For the same compound, the “decrease of mortality compared to the non-treated group” value in the assay on rec A(H1N1)pdm09 [3] worked out at 50%. In the assay on rec A(H1N1)pdm09 [3], this compound came in with a survival rate of 50%.
